# Assay results from PMC6362850 (European journal of medicinal chemistry, 2018).
# Biological target: HBV capsid (Hepatitis B virus genotype D subtype ayw, UniProt P03146, R150C)
# Test: Transmission electron microscopy of HBV capsid assembly
# Type: biochemical
# Details: compared to DMSO control
row,Compound,Effect on HBV capsid assembly (TEM)
1,Cc1cc(NC(=O)c2sc(N)c(C(N)=O)c2C)ccc1F [Compound 19h],promoted the aggregation of HBV capsid

# Biological target: T1, HBV Cp (Hepatitis B virus genotype D subtype ayw, UniProt P03146, R150C)
# Test: not given
# Details: HTS of commercial libraries; cited from earlier work
row,Compound,"Binding to HBV Cp in TSA (HTS), in words"
1,"Cc1c(C(=O)Nc2ccccc2)sc(N)c1C(N)=O [Compound 11, 5-Amino-3-methyl-N2-phenylthiophene-2,4-dicarboxamide]",strong binder

# Biological target: T1, HBV Cp
# Test: not given
# Type: binding
# Details: not given
row,Compound,"Cp binding in TSA, in words"
1,Cc1c(C(=O)Nc2ccccc2)sc(-n2cnnn2)c1C(N)=O [Compound 12k],completely inactive
2,COc1ccc(NC(=O)c2sc(N)c(C(N)=O)c2C)cc1 [Compound 19b],Cp binding was preserved
3,Cc1c(C(=O)NCc2ccccc2)sc(N)c1C(N)=O [Compound 19a],strong Cp binding was preserved
4,Cc1c(C(=O)Nc2cc(F)c(F)c(Cl)c2)sc(N)c1C#N [Compound 14d],loss of binding affinity
5,Cc1cc(NC(=O)c2sc(N)c(C(N)=O)c2C)ccc1F [Compound 19h],only the denaturation peak corresponding to fully assemble capsid was observed
6,Cc1c(C(=O)Nc2ccc(F)c(F)c2)sc(N)c1C(=O)NC1CCCC1 [Compound 16m],retained strong Cp binding
7,Cc1c(C(=O)Nc2ccc(F)cc2)sc(N)c1C(N)=O [Compound 19e],strong Cp binding
8,"Cc1c(C(=O)Nc2ccccc2)sc(NC(=O)N2CCOCC2)c1C(N)=O [Compound 12a, 3-Methyl-5-(morpholine-4-carboxamido)-N2-phenylthiophene-2,4-dicarboxamide]",completely inactive
9,Cc1c(C(=O)Nc2ccccc2)sc(N)c1C#N [Compound 14a],loss of binding affinity
10,"5-Amino-4-carbamothioyl-N-(3,4-difluorophenyl)-3-methylthiophene-2-carboxamide [Compound 13]",Strong binding

# Tested on: not listed separately
# Test: Aqueous solubility assay in DPBS
# Type: physicochemical
# Details: thermodynamic, 72 h, ambient temperature
row,Aqueous Solubility,Compound
1,poor aqueous solubility,Cc1c(C(=O)Nc2ccc(F)c(C(F)F)c2)sc(N)c1C(N)=O [Compound 19o]
2,poor aqueous solubility,Cc1c(C(=O)Nc2ccc(F)c(F)c2)sc(N)c1C(N)=O [Compound 19g]
3,poor aqueous solubility,Cc1c(C(=O)Nc2ccc(F)c(C#N)c2)sc(N)c1C(N)=O [Compound 19l]
